Laboratory results as given in PubChem BioAssay (NCI).
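Method: 48-hour compound exposure of cells in 96-well plates, five concentrations, linear interpolation of endpoints. At the GI50, growth is halved. Definition used: TGI = concentration required for complete inhibition of growth.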

Assays:
Assay in all cases: NCI tumour cell line growth inhibition, 48 h
[1] = system: KM20L2 colon
[2] = system: DLD-1 colon
[3] = system: DMS 114 small cell lung
[4] = system: LXFL 529 NSCLC
[5] = system: XF 498 CNS
[6] = system: RXF-631 renal
[7] = system: DMS 273 small cell lung
[8] = system: P388 leukemia
[9] = system: P388/ADR leukemia
[10] = system: SN12K1 renal

O=C([CH-]C(=O)c1ccccc1)c1ccccc1.[C-]#[O+].[C-]#[O+].[Ir]
GI50 [1]: 39.7 µM | TGI [1]: > 100 µM

COc1ccc(CN(CCN(C)C)c2ccccn2)cc1 (tested in a mixture with another compound)
TGI [2]: > 100 µM | TGI [3]: > 100 µM | TGI [1]: > 100 µM | TGI [4]: > 100 µM | TGI [5]: > 100 µM

Cc1cc(N(CCC#N)S(=O)(=O)c2ccccc2)ccc1C=Nc1cccc(C(=O)O)c1
TGI [3]: > 100 µM | TGI [1]: > 100 µM | TGI [4]: > 100 µM | TGI [6]: > 100 µM

CC1(CO)C(O)CCC2(C)C1CCC1CC3CC12CCC3(O)CO (centres undefined)
TGI [2]: > 100 µM | TGI [3]: > 100 µM | TGI [7]: > 100 µM | TGI [1]: > 100 µM | TGI [8]: 6.66 µM | TGI [9]: 12.6 µM | TGI [10]: > 100 µM | TGI [5]: > 100 µM

O=C(NN1C(=O)C(Cl)C1c1cccc(O)c1)c1ccccc1O (centres undefined)
TGI [2]: > 100 µM | TGI [3]: > 100 µM | TGI [7]: > 100 µM | TGI [4]: > 100 µM | TGI [5]: > 100 µM
